Measured values as given in PubChem BioAssay AID463206 (Broad Institute, 2010).
Active and inactive are the calls of the source.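 The calls were made as follows: active = caspase luminescence falls with dose and the half-maximal concentration AC50 from the fitted curve is at or below a set limit; inconclusive = flat fit at 30 to 70% signal loss, or invalid fit; inactive = AC50 above the limit, or signal rises instead.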

tested on: INS-1E cytokine-induced caspase-3/7, Caspase-Glo luminescence, 48 h; assay: suppression of cytokine-driven beta-cell apoptosis – INS-1E rat cells, luminescence, orthogonal assay for beta-cell apoptosis protection project, dose response (AID 463206)

SMILES	AC50
COc1ccc(C2CC(c3cccc(C)c3)n3nc(N)nc3N2)cc1 (configuration not stated)	> 26 µM (inactive)
CN1/C(=C\C(=S)NC(=O)c2ccccc2Cl)C(C)(C)c2ccccc21	> 26 µM (inactive)
COc1ccc2nc(C)cc(N/N=C/c3ccccc3)c2c1	10.1 µM
COc1ccccc1N1CCN(Cc2cc(Br)c(O)c3ncccc23)CC1	> 12 µM (inactive)
COc1cnc(-c2ccccn2)nc1N(C)C	> 26 µM (inactive)
O=[N+]([O-])c1ccc(Sc2cccc3cccnc23)c([N+](=O)[O-])c1	> 26 µM (inactive)
N=c1c2c(n(Cc3ccc(Cl)c(Cl)c3)c3c1CCC3)CCCC2	> 26 µM (inactive)
Oc1ccc(CNc2ccccc2)c2cccnc12	> 26 µM (inactive)
FC(F)(F)c1ccccc1NC(=S)N1CCc2ccccc2C1	> 26 µM (inactive)
COc1ccc2c(c1)C(=O)[C@H](O)[C@@H](c1ccc(OC)c(Br)c1)O2	> 26 µM (inactive)
CCOC(=O)c1c(C)oc2c1C(=O)c1ccccc1C2=O	> 26 µM (inactive)
COc1ccc(-n2c(-c3ccc(Cl)cc3)c[n+]3c2CCCCC3)cc1	> 26 µM (inactive)
CCCCC(=O)NC(c1ccco1)c1cc(Cl)c2cccnc2c1O (configuration not stated)	> 26 µM (inactive)
CCCN(CCC)c1nc(-c2ccccn2)nc2ccccc12	> 26 µM (inactive)
COc1ccc(C(=O)N/N=C(\C)c2ccccn2)cc1OC	> 26 µM (inactive)
N=c1c2c(n(Cc3ccc(Br)cc3)c3c1CCC3)CCCC2	> 26 µM (inactive)
CCC1=NN(C(=O)c2cccc(Br)c2)C(O)(c2ccc(Br)cc2)C1 (configuration not stated)	> 26 µM (inactive)
CCOC(=O)N1CCN(C(=O)CSCC(=O)Nc2nc(-c3ccc(-c4ccccc4)cc3)cs2)CC1	> 26 µM (inactive)
Cc1ccc(Oc2nc(-c3ccccn3)nc3ccccc23)cc1	> 26 µM (inactive)
N#Cc1c(Cl)nsc1NC(=O)c1ccccc1	> 26 µM (inactive)
COC(=O)c1sc(-c2ccc(C(C)(C)C)cc2)cc1NC(=O)/C=C/C(=O)O	> 26 µM (inactive)
Cc1ccc(Nc2c3c(nc4ccccc24)CCC3)cc1	> 26 µM (inactive)
C/C(=N\NC(=O)C(c1ccccc1)c1ccccc1)c1ccccn1	> 26 µM (inactive)
O=C([O-])c1cc(-c2ccccc2)cc(-c2ccccc2)[n+]1Cc1ccccc1	> 26 µM (inactive)
COc1ccc(CN(C)c2ccc(S(=O)(=O)N3CCN(C)CC3)cc2[N+](=O)[O-])cc1OC	> 26 µM (inactive)

SMILES	AC50
CS(=O)(=O)c1ncc(Cl)c(C(=O)Nc2ccc(OC(F)F)cc2)n1	> 26 µM (inactive)
CC(NC(=O)C1CCC(C(=O)NC(C)c2ccccc2)CC1)c1ccccc1 (configuration not stated)	> 26 µM (inactive)
COc1cccc(C(=O)Oc2c(CN3CCOCC3)cc(Cl)c3cccnc23)c1	> 26 µM (inactive)
CC1=C(CO)C(=O)OC([C@@H](C)C2CC[C@H]3C4C[C@H]5O[C@]56[C@@H](O)C=CC(=O)[C@]6(C)C4CC[C@]23C)C1 (some centres not stated)	> 26 µM (inactive)
COc1cccc(/C=N/Nc2cc(N3CCOCC3)ncn2)c1O	> 26 µM (inactive)
CC(=O)N(C)C1=C(N2CCOCC2)C(=O)c2ccccc2C1=O	> 26 µM (inactive)
CC(=O)c1c(C)oc2ccc(N(C(C)=O)S(=O)(=O)c3cccc4cccnc34)cc12	> 26 µM (inactive)
COc1ccc(C2/C=C\CN(C(=O)c3ccc(C)cc3)[C@H](Cc3ccccc3)C(=O)N2Cc2ccc(F)cc2)cc1 (some centres not stated)	> 26 µM (inactive)
O=C1C=C(Nc2ccccc2)C(=O)c2ccccc21	> 26 µM (inactive)
Oc1ccc2ccccc2c1N=Nc1nccs1	> 26 µM (inactive)
O=[N+]([O-])c1ccc(N=Nc2c(Cl)cc(O)cc2Cl)cc1	> 26 µM (inactive)
O=C(C#Cc1ccccc1)Nc1cccc(F)c1	> 26 µM (inactive)
Cc1cccc(CNc2ccc(S(=O)(=O)N3CCCCC3)cc2)c1	> 26 µM (inactive)
COc1cccc(/C=N/NC(=O)c2ccoc2C)c1O	> 26 µM (inactive)
COc1cccc(/C=N/Nc2nc3ccccc3[nH]2)c1O	> 26 µM (inactive)
CCc1ccc(NC(=O)CSc2ccc(-c3ccccn3)nn2)cc1	> 26 µM (inactive)
COc1ccc(C(=O)N(C)c2ccccc2C(=O)NCCc2ccccc2)cc1	> 26 µM (inactive)
CCn1c(=O)c([N+](=O)[O-])c(Cl)c2ccccc21	> 26 µM (inactive)
O=C(Nc1ccc(Cc2ccncc2)cc1)c1ccc([N+](=O)[O-])o1	> 26 µM (inactive)
O=C(CCCc1nc(-c2ccc(Cl)cc2)no1)NC1CCCC1	> 12 µM (inactive)
Cc1cccc(NC2=C(NC(=O)c3ccccc3)C(=O)c3ccccc3C2=O)c1	> 26 µM (inactive)
c1ccc(-c2nnc3sc(-c4csc5c4CCCC5)nn23)cc1	> 26 µM (inactive)
Cc1ccc(NC2=C/C(=N/S(=O)(=O)c3cccs3)c3ccccc3C2=O)cc1	> 26 µM (inactive)
CC1CCc2c(sc3nc(C4CC4)nc(N4CCN(C(=O)c5ccco5)CC4)c23)C1 (configuration not stated)	> 26 µM (inactive)
Cc1cccc(C(=O)Nc2ccc(C(=O)/C=C/c3cccnc3)cc2)c1	> 26 µM (inactive)

SMILES	AC50
CC[C@H]1CN2CCc3cc(OC)c(OC)cc3[C@@H]2C[C@@H]1C[C@H]1NCCc2cc(OC)c(OC)cc21	> 26 µM (inactive)
Cc1ccc(C)c(NC(=O)/C(C#N)=C/c2cn(CC(=O)NCc3ccco3)c3ccccc23)c1	> 26 µM (inactive)
NC1=NC[C@H](Cc2ccccc2)N1CCCCC1CCCCC1	> 26 µM (inactive)
Cc1ccc(-c2nc(NC(=O)c3nn(C)cc3[N+](=O)[O-])sc2C)cc1	> 26 µM (inactive)
COC(=O)c1ccc2c(c1)C(C)(C)C(/C=C/c1ccc(OC)c(OC)c1OC)=[N+]2C	> 26 µM (inactive)
CCCCCCn1ccc(=N)cc1	> 26 µM (inactive)
Oc1ccc(-[n+]2c(-c3ccccc3)cc(-c3ccccc3)cc2-c2ccccc2)cc1	> 26 µM (inactive)
CCCCCCSc1cc(-c2nc3ccc(C)cn3c2NCCCC)ccc1OC	> 26 µM (inactive)
COc1ccccc1NC(=O)c1nc(S(=O)(=O)Cc2ccccc2)ncc1Cl	> 26 µM (inactive)
CC(=O)Nc1ccc(S(=O)(=O)NC2=C(N3CCN(C)CC3)C(=O)c3ccccc3C2=O)cc1	> 26 µM (inactive)
Cn1nccc1C(=O)NC1CCCc2c1cnn2-c1ccc(F)cc1F (configuration not stated)	> 26 µM (inactive)
Cc1ccc(S(=O)(=O)N2CCCCC2c2cccnc2)c(C)c1C (configuration not stated)	> 26 µM (inactive)
Cn1nnnc1N=N/C(=N/Nc1ccccc1)c1ccccc1	> 12 µM (inactive)
CNc1nc(N)c([N+](=O)[O-])c(Nc2cccc(F)c2)n1	> 26 µM (inactive)
O=C(COc1ccc2ccccc2c1)N1CCN(Cc2c[nH]c3ccccc23)CC1	> 26 µM (inactive)
Cc1cccnc1CN1CCN(C(=O)c2cc(COc3ccc4ncccc4c3)on2)CC1	> 26 µM (inactive)
CC1CN(S(=O)(=O)c2ccc(C(=O)NCCCn3ccnc3)cc2)CC(C)O1 (configuration not stated)	> 26 µM (inactive)
CCOC(=O)c1c(NC(=O)c2cc(-c3ccc(Cl)s3)nc3ccccc23)sc(C(N)=O)c1C	> 26 µM (inactive)
O=C(Nc1ccc(C(F)(F)F)cc1)C1CCN(S(=O)(=O)c2ccc(N3CCCC3=O)cc2)CC1	> 26 µM (inactive)
COc1ccc2cc3[n+](cc2c1OC)CCc1cc2c(cc1-3)OCO2	> 26 µM (inactive)
CCOC(=O)C1=C(c2ccc(OC)cc2)C(=O)c2ccccc2C1=O	> 26 µM (inactive)
Oc1ccccc1/C=N/Nc1ncc(Br)cn1	> 26 µM (inactive)
CC(=O)NC(c1ccc(C(C)C)cc1)c1ccc2cccnc2c1O (configuration not stated)	> 26 µM (inactive)
Cc1cc(C)nc(-n2nc(C)cc2Nc2ccccc2)n1	> 26 µM (inactive)
c1ccc(CCNc2ncnc3ccccc23)cc1	> 26 µM (inactive)

SMILES	AC50
c1ccc2c(c1)ncn2CCCCOc1ccc2c(c1)CCC2	> 26 µM (inactive)
Cc1cc(-c2ccccc2)n(-c2cc(N/N=C/c3ccccc3O)ncn2)n1	> 26 µM (inactive)
O=C(Oc1cccc2cccnc12)c1cccc(N2C(=O)C3C4CCC(C4)C3C2=O)c1 (configuration not stated)	> 26 µM (inactive)
Oc1ccc2ccccc2c1/C=N/Nc1nnc(-c2ncc[nH]2)c2ccccc12	> 26 µM (inactive)
CC(Nc1ncnc2ccccc12)c1ccccc1 (configuration not stated)	> 26 µM (inactive)
CCCC(=O)NC(c1ccccc1OC)c1ccc2cccnc2c1O (configuration not stated)	> 26 µM (inactive)
Cc1ccc2nc(-c3cccc(-c4cccc(Cl)c4)c3)c(NCc3ccccc3)n2c1	> 26 µM (inactive)
CC1CCC(C(C)C)C(OC(=O)Cn2c(-c3ccc(Cl)cc3)[n+](C)c3ccccc32)C1 (configuration not stated)	> 26 µM (inactive)
O=S(=O)(c1cc(F)ccc1F)N1CCN(c2ncnc3ccccc23)CC1	> 26 µM (inactive)
O=C(COC(=O)c1cn(-c2ccccc2)nc1-c1ccccc1)c1cccc([N+](=O)[O-])c1	> 26 µM (inactive)
O=C(N/N=C/c1ccc(O)cc1O)c1ccc(CN2C(=O)c3cccc4cccc2c34)cc1	> 26 µM (inactive)
Oc1[nH]c2ccccc2c1N=NC(=S)N1CCOCC1	> 26 µM (inactive)
Cc1cc2cc(CN3C(=O)c4ccccc4C3=O)ccc2n1C	> 26 µM (inactive)
CCOC(=O)c1sc(NC(=O)Nc2cccc(Cl)c2)cc1C	> 26 µM (inactive)
O=[N+]([O-])c1ccc(-n2cnc3ccccc32)c([N+](=O)[O-])c1	> 12 µM (inactive)
CCc1cc(C(=O)NC2CCCc3c2cnn3-c2cccc(C)c2C)n(C)n1 (configuration not stated)	> 26 µM (inactive)
CC(=O)NC(c1cccs1)c1cc([N+](=O)[O-])c2cccnc2c1O (configuration not stated)	> 26 µM (inactive)
COc1ccc(C[C@H]2CN3C(=NC[C@@H]3Cc3ccccc3)N2CCNC(=O)CCC2CCCCC2)cc1	> 26 µM (inactive)
c1ccc(CNc2nc(NCc3ccccc3)c3ccccc3n2)cc1	> 26 µM (inactive)
CC(C)CN(C(=O)COC(=O)C12CC3CC(CC(C3)C1)C2)c1c(N)n(Cc2ccccc2)c(=O)[nH]c1=O	> 26 µM (inactive)
CCN(CC)S(=O)(=O)c1cc(C)ccc1NC(=S)Nc1cccnc1	> 26 µM (inactive)
O=C(Oc1c(CN2CCOCC2)cc(Cl)c2cccnc12)c1ccccc1	> 26 µM (inactive)
